Experimental data as given in patent US7825260B2, “Aminopropanol derivatives as sphingosine-1-phosphate receptor modulators” (Novartis AG, priority 2003, dated 2010).

Legend:
[1] = system: peripheral blood lymphocytes; assay: In vivo: Blood Lymphocyte Depletion; details: rats, p.o.
Procedure: B. In vivo: Blood Lymphocyte Depletion
A compound of formula I or the vehicle is administered orally by gavage to rats. Tail blood for hematological monitoring is obtained on day −1 to give the baseline individual values, and at 2, 6, 24, 48 and 72 hours after application. In this assay, the compounds of formula I deplete peripheral blood lymphocytes when administered at a dose of 0.03 to 3 mg/kg. For example, following results are obtained: depletion of peripheral blood lymphocytes by more than 50%.

[2] = molecular target: T1, human S1P receptor EDG-3 (S1P3) (Homo sapiens, UniProt Q99500); assay: S1P receptor profiling, GTP[γ-35S] binding SPA, S1P3; format: biochemical; details: for S1P3 mode of action: Agon = agonist; for EC50: GTP[γ-35S] binding to membranes of transfected CHO or RH7777 cells
T1 construct: expressed in transfected cells
T1 sequence (Q99500 whole entry): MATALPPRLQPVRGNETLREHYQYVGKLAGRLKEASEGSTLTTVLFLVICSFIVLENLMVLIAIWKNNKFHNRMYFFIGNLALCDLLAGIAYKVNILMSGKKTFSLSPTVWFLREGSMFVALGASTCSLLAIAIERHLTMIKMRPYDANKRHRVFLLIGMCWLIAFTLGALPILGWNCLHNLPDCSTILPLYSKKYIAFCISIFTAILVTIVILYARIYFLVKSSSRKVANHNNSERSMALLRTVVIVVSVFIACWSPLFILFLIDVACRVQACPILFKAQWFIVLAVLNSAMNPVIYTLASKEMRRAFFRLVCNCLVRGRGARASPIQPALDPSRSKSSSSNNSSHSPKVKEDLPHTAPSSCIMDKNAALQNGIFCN
Procedure: (§1) Sphingosine-1-phosphate (S1P) Receptor Profiling
(§2) Agonist activities of compounds are tested on the human S1P receptors EDG-1 (S1P1), EDG-3 (S1P3), EDG-5 (S1P2), EDG-6 (S1P4) and EDG-8 (S1P5). […] The assay technology used is SPA (scintillation proximity based assay). Briefly, DMSO dissolved compounds are serially diluted and added to SPA-bead (Amersham-Pharmacia) immobilised S1P receptor expressing membrane protein (10-20 μg/well) in the presence of 50 mM Hepes, 100 mM NaCl, 10 mM MgCl2, 10 μM GDP, 0.1% fat free BSA and 0.2 nM GTP [γ-^35S] (1200 Ci/mmol). After incubation in 96 well microtiterplates at RT for 120 min, unbound GTP [γ-^35S] is separated by a centrifugation step. Luminescence of SPA beads triggered by membrane bound GTP [γ-^35S] is quantified with a TOPcount plate reader (Packard). EC50s are calculated using standard curve fitting software. In this assay, the compounds of formula I have a binding affinity to S1P1 receptor <50 nM.

[3] = molecular target: T2, human S1P receptor EDG-1 (S1P1) (Homo sapiens, UniProt P21453); assay: S1P receptor profiling, GTP[γ-35S] binding SPA, S1P1; format: biochemical; details: for S1P1 mode of action: Agon = agonist; for EC50: GTP[γ-35S] binding to membranes of transfected CHO or RH7777 cells
T2 construct: expressed in transfected cells
T2 sequence (P21453 whole entry): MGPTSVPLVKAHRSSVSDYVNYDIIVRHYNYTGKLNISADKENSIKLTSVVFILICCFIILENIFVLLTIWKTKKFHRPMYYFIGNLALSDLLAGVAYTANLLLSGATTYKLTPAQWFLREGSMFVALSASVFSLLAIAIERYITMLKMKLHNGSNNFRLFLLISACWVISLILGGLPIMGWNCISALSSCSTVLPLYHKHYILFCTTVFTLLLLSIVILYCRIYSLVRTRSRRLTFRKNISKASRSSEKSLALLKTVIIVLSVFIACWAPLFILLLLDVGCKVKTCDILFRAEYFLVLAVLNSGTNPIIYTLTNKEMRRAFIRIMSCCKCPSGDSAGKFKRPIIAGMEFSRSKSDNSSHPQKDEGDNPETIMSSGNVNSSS
Procedure: as §1, §2

[4] = molecular target: T3, human S1P receptor EDG-6 (S1P4) (Homo sapiens, UniProt O95977); assay: S1P receptor profiling, GTP[γ-35S] binding SPA, S1P4; format: biochemical; details: for S1P4 mode of action: Agon = agonist; for EC50: GTP[γ-35S] binding to membranes of transfected CHO or RH7777 cells
T3 construct: expressed in transfected cells
T3 sequence (O95977 1-384): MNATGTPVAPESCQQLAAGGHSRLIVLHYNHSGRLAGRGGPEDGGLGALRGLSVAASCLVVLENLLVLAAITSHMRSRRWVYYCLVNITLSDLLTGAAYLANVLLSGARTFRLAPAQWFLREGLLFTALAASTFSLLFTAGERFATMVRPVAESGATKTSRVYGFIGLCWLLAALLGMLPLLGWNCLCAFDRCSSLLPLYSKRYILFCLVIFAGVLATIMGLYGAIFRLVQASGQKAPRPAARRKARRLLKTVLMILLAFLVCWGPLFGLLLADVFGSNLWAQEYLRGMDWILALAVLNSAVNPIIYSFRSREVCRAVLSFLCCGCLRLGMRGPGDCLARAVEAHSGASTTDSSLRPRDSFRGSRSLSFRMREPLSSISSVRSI
Procedure: as §1, §2

[5] = molecular target: T4, human S1P receptor EDG-8 (S1P5) (Homo sapiens, UniProt Q9H228); assay: S1P receptor profiling, GTP[γ-35S] binding SPA, S1P5; format: biochemical; details: for S1P5 mode of action: Agon = agonist; for EC50: GTP[γ-35S] binding to membranes of transfected CHO or RH7777 cells
T4 construct: expressed in transfected cells
T4 sequence (Q9H228 whole entry): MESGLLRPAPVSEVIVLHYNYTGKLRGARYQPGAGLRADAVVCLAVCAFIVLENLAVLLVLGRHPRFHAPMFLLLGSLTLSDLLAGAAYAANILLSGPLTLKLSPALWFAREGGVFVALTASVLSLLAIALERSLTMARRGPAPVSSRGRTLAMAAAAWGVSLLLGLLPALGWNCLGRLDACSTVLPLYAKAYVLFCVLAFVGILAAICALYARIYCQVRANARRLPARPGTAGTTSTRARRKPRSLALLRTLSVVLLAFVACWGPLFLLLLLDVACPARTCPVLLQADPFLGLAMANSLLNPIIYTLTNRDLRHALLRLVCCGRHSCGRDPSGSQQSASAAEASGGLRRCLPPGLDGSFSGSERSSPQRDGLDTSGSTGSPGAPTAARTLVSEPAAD
Procedure: as §1, §2

CCCCCOc1ccc2cc(CC[C@@](C)(N)CO)ccc2c1 [Example 1, (R)-2-amino-2-methyl-4-(6-pentyloxynaphthalen-2-yl)butan-1-ol]
dose giving depletion of peripheral blood lymphocytes by more than 50% ([1]; after 6 h): 0.02 mg/kg p.o. after 6 h,
dose giving depletion of peripheral blood lymphocytes by more than 50% ([1]; after 24 h): 0.3 mg/kg p.o. after 24 h,
dose giving depletion of peripheral blood lymphocytes by more than 50% ([1]; after 48 h): >1 mg/kg after 48 h

CCCCCOc1ccc2cc(CC[C@@](C)(N)COP(=O)(O)O)ccc2c1 [Example 12, Phosphoric acid mono-[(R)-2-amino-2-methyl-4-(6-pentyloxynaphthalen-2-yl)but-1-yl]ester]
melting point: 266 to 267 °C
S1P3 mode of action [2]: Agon
EC50 [2]: 8.4 nM
S1P1 mode of action [3]: Agon
EC50 [3]: 0.3 nM
S1P4 mode of action [4]: Agon
EC50 [4]: 0.4 nM
S1P5 mode of action [5]: Agon
EC50 [5]: 0.1 nM

C[C@@](N)(CCc1ccc2cc(OCCCC(F)(F)C(F)(F)F)ccc2c1)COP(=O)(O)O [Example 13]
S1P3 mode of action [2]: Agon
EC50 [2]: 5.7 nM
S1P1 mode of action [3]: Agon
EC50 [3]: 0.06 nM
S1P4 mode of action [4]: Agon
EC50 [4]: 1.2 nM
S1P5 mode of action [5]: Agon
EC50 [5]: 0.4 nM

CCCOc1ccc2cc(CC[C@@](C)(N)COP(=O)(O)O)ccc2c1 [Example 14]
S1P3 mode of action [2]: inverse
EC50 [2]: 47 nM
S1P1 mode of action [3]: Agon
EC50 [3]: 2.8 nM
S1P4 mode of action [4]: Agon
EC50 [4]: 1 nM
S1P5 mode of action [5]: Agon
EC50 [5]: 0.8 nM

C[C@](N)(CO)CCc1ccc2oc(-c3ccc4c(c3)OCO4)nc2c1 [Example 25, (R)-2-Amino-4-(2-benzo[1,3]dioxol-5-yl-benzoxazol-5-yl)-2-methyl-butan-1-ol]
dose giving depletion of peripheral blood lymphocytes by more than 50% ([1]; after 6 h): 0.06 mg/kg p.o. after 6 h
dose giving depletion of peripheral blood lymphocytes by more than 50% ([1]; after 48 h): 0.3 mg/kg after 48 h

CCOc1cccc(-c2nc3cc(CC[C@@](C)(N)CO)ccc3o2)c1 [Example 26, (R)-2-Amino-4-[2-(3-ethoxy-phenyl)-benzoxazol-5-yl]-2-methyl-butan-1-ol]
dose giving depletion of peripheral blood lymphocytes by more than 50% ([1]; after 6 h): 0.03 mg/kg p.o. after 6 h
dose giving depletion of peripheral blood lymphocytes by more than 50% ([1]; after 48 h): 0.2 mg/kg after 48 h

C[C@](N)(CO)CCc1ccc2oc(-c3ccccc3)cc2c1 [Example 37, (R)-2-Amino-2-methyl-4-(2-phenyl-benzofuran-5-yl)-butan-1-ol]
dose giving depletion of peripheral blood lymphocytes by more than 50% ([1]; after 6 h): 0.40 mg/kg p.o. after 6 h

CCCCCc1nc2cc(CC[C@@](C)(N)COP(=O)(O)O)ccc2o1 [Example 42, Phosphoric acid mono-[(R)-2-amino-2-methyl-4-(2-pentyl-benzoxazol-5-yl)-butyl]ester]
S1P3 mode of action [2]: Agon
EC50 [2]: > 1000 nM
S1P1 mode of action [3]: Agon
EC50 [3]: 17 nM
S1P4 mode of action [4]: Agon
EC50 [4]: 9 nM
S1P5 mode of action [5]: Agon
EC50 [5]: 5 nM

C[C@@](N)(CCc1ccc2oc(-c3ccccc3)cc2c1)COP(=O)(O)O [Example 49, Phosphoric acid mono-[(R)-2-amino-2-methyl-4-(2-phenyl-benzofuran-5-yl)-butyl]ester]
S1P3 mode of action [2]: Agon
EC50 [2]: 1180 nM
S1P1 mode of action [3]: Agon
EC50 [3]: 1.6 nM
S1P4 mode of action [4]: Agon
EC50 [4]: 0.7 nM
S1P5 mode of action [5]: Agon
EC50 [5]: 0.4 nM
